# From ChEMBL document CHEMBL6078648, “Prioritization of Eleven-Nineteen-Leukemia Inhibitors as Orally Available Drug Candidates for Acute Myeloid Leukemia” (J Med Chem, 2024)
# Calls of active or inactive are those of the source. The calls are words filed in the database; no cut-off is given here.
# Experiments:
# [1] = target: T1, Protein ENL (Homo sapiens) (UniProt Q03111); assay: Inhibition of ENL YEATS domain (unknown origin) (1 to 148 residues) preincubated with compound for 1 hr followed by alpha-bead addition and measured after 30 mins under dark condition by Alphascreen assay; settings: time 90.0 min
# T1 sequence (whole entry): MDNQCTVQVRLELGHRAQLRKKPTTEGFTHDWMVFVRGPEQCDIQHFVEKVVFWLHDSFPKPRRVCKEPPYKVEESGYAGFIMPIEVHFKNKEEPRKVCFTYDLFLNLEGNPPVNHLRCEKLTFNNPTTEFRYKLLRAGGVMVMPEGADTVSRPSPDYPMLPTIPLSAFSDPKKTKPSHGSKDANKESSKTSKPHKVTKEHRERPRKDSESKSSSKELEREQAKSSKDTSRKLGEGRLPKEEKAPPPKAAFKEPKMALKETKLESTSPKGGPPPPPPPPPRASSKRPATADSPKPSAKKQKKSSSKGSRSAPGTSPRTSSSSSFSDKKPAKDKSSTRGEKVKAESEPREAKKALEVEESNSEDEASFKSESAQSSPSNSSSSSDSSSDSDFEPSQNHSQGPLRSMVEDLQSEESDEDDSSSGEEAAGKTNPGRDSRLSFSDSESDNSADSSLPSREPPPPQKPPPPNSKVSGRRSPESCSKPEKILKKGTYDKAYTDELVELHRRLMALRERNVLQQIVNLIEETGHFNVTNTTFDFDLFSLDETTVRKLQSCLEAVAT
# [2] = Metabolic stability in human plasma assessed as parent compound remaining measured after 1 hrs by HPLC-MS/MS analysis; type: ADME, cell-free
# [3] = tested on: MV4-11; assay: Cytotoxicity against human MV4-11 cells assessed as cell viability upto 100 uM incubated for 72 hrs by CCK-8 assay; type: functional, cell-based
# [4] = tested on: MOLM-13; assay: Cytotoxicity against human MOLM-13 cells assessed as cell viability upto 100 uM incubated for 72 hrs by CCK-8 assay; type: functional, cell-based
# [5] = tested on: MOLM-13; assay: Cytotoxicity against human MOLM-13 cells assessed as cell viability incubated for 8 days by CCK-8 assay; type: functional; settings: for Activity: time 8.0 day; for CC50: MOLM-13, 192 h, time 8 day
# [6] = Metabolic stability in human plasma assessed as parent compound remaining measured after 2 hrs by HPLC-MS/MS analysis; type: ADME, cell-free
# [7] = tested on: MV4-11; assay: Cytotoxicity against human MV4-11 cells assessed as cell viability incubated for 8 days by CCK-8 assay; type: functional; settings: for Activity: time 8.0 day; for CC50: MV4-11, 192 h, time 8 day
# [8] = Metabolic stability in mouse liver microsome assessed as half life; type: ADME; settings: liver microsomes
# [9] = target: T1, Protein ENL (Homo sapiens); assay: Binding affinity to ENL YEATS domain (unknown origin) expressed in HEK293 cells incubated for 2 hrs by NanoBRET assay; type: cell-based
# [10] = tested on: Jurkat; assay: Antiproliferative activity against human Jurkat cells assessed as reduction in cell proliferation at 1 uM measured upto 2 weeks; type: functional, cell-based
# [11] = Cytotoxicity against human HEK293T cells assessed as cell viability incubated for 8 days by CCK-8 assay; type: toxicity, cell-based, HEK-293T; settings: time 8 day
# [12] = tested on: MV4-11; assay: Downregulation of HOXA10 expression in human MV4-11 cells at 1 uM measured for 72 hrs by qRT-PCR analysis; type: functional, cell-based
# [13] = tested on: MOLM-13; assay: Downregulation of MYC expression in human MOLM-13 cells at 1 uM measured for 72 hrs by qRT-PCR analysis; type: functional, cell-based
# [14] = tested on: MOLM-13; assay: Downregulation of MYB expression in human MOLM-13 cells at 1 uM measured for 72 hrs by qRT-PCR analysis; type: functional, cell-based
# [15] = tested on: MV4-11; assay: Downregulation of HOXA9 expression in human MV4-11 cells at 1 uM measured for 72 hrs by qRT-PCR analysis; type: functional, cell-based
# [16] = tested on: HEK-293T; assay: Cytotoxicity against HEK293T cells assessed as reduction in cell viability at 16 uM incubated for 8 days by CCK-8 assay; type: toxicity, cell-based; settings: human, 192 h, time 8 day
# [17] = Half life in CD-1 mouse at 20 mg/kg, iv measured upto 24 hrs by HPLC-MS/MS analysis; type: ADME, organism-based; settings: in vivo
# [18] = tested on: MOLM-13; assay: Downregulation of HOXA9 expression in human MOLM-13 cells at 1 uM measured for 72 hrs by qRT-PCR analysis; type: functional, cell-based
# [19] = tested on: Jurkat; assay: Cytotoxicity against human Jurkat cells assessed as cell viability incubated for 72 hrs by CCK-8 assay; type: functional
# [20] = tested on: MV4-11; assay: Downregulation of MYB expression in human MV4-11 cells at 1 uM measured for 72 hrs by qRT-PCR analysis; type: functional, cell-based
# [21] = Toxicity in NSG mouse implanted with human MOLM-13 assessed as tolerability at 200 mg/kg, po qd measured every 2 to 3 days; type: organism-based; settings: in vivo, time 2-3 day
# [22] = Toxicity in NSG mouse implanted with human MOLM-13 assessed as body weight loss at 400 mg/kg, po qd measured every 2 to 3 days and measured at day 15; type: organism-based; settings: in vivo, 360 h, time 15 day
# [23] = tested on: MOLM-13; assay: Downregulation of MEISI expression in human MOLM-13 cells at 1 uM measured for 72 hrs by qRT-PCR analysis; type: functional, cell-based
# [24] = tested on: MOLM-13; assay: Antitumor activity against human MOLM-13 cells xenografted in NSG mouse assessed as reduction in tumor burden at 400 mg/kg, po qd measured after 13 days; type: functional, organism-based; settings: time 13.0 day
# [25] = tested on: MV4-11; assay: Downregulation of MEISI expression in human MV4-11 cells at 1 uM measured for 72 hrs by qRT-PCR analysis; type: functional, cell-based
# [26] = tested on: MOLM-13; assay: Antitumor activity against human MOLM-13 cells xenografted in NSG mouse assessed as reduction in tumor growth at 200 mg/kg, po qd measured after 13 days; type: functional, organism-based; settings: time 13.0 day
# [27] = tested on: MV4-11; assay: Induction of cell cycle arrest in human MV4-11 cells assessed as increase in accumulation of cells at G1 phase at 1 to 10 uM incubated for 72 hrs by PI staining based flow cytometric analysis; type: functional; settings: dose 1-10 µM
# [28] = Toxicity in NSG mouse implanted with human MOLM-13 assessed as animal survival at 400 mg/kg, po qd measured every 2 to 3 days and measured at day 15; type: organism-based; settings: in vivo, 360 h, time 15 day
# [29] = tested on: MV4-11; assay: Downregulation of MYC expression in human MV4-11 cells at 1 uM measured for 72 hrs by qRT-PCR analysis; type: functional, cell-based
# [30] = tested on: Jurkat; assay: Cytotoxicity against human Jurkat cells assessed as reduction in cell viability at 10 uM incubated for 8 days by CCK-8 assay; type: functional, cell-based; settings: time 8.0 day
# [31] = target: T1, Protein ENL (Homo sapiens); assay: Binding affinity to ENL in human MOLM-13 cells assessed as increase in protein thermal stabilization at 10 uM incubated for 3 to 6 hrs by CETSA analysis; type: cell-based; settings: time 3-6 hrs
# [32] = target: T1, Protein ENL (Homo sapiens); assay: Binding affinity to ENL in human MV4-11 cells assessed as increase in protein thermal stabilization at 10 uM incubated for 3 to 6 hrs by CETSA analysis; type: cell-based; settings: time 3-6 hrs
# [33] = tested on: MOLM-13; assay: Induction of cell cycle arrest in human MOLM-13 cells assessed as increase in accumulation of cells at G1 phase at 1 to 10 uM incubated for 72 hrs by PI staining based flow cytometric analysis; type: functional; settings: dose 1-10 µM
# [34] = Toxicity in NSG mouse implanted with human MOLM-13 assessed as body weight loss at 200 mg/kg, po qd measured every 2 to 3 days; type: organism-based; settings: in vivo, time 2-3 day
# [35] = tested on: HEK-293T; assay: Cytotoxicity against HEK293T cells assessed as reduction in cell viability at 10 uM incubated for 8 days by CCK-8 assay; type: toxicity, cell-based; settings: human, 192 h, time 8 day
# [36] = tested on: MOLM-13; assay: Downregulation of HOXA10 expression in human MOLM-13 cells at 1 uM measured for 72 hrs by qRT-PCR analysis; type: functional, cell-based
# [37] = tested on: Jurkat; assay: Cytotoxicity against human Jurkat cells assessed as reduction in cell viability at 16 uM incubated for 8 days by CCK-8 assay; type: functional, cell-based; settings: time 8.0 day
# [38] = tested on: Jurkat; assay: Cytotoxicity against human Jurkat cells assessed as cell viability incubated for 8 days by CCK-8 assay; type: functional; settings: 192 h, time 8 day
# [39] = target: T1, Protein ENL (Homo sapiens); assay: Binding affinity to ENL YEATS domain (unknown origin) (1 to 148 residues) expressed in HEK293 cells assessed as […] incubated for 2 hrs by NanoBRET assay; type: cell-based; settings: dose <= 100.0 µM
# [40] = Toxicity in NSG mouse implanted with human MOLM-13 assessed as body weight loss at 200 mg/kg, po qd; type: organism-based; settings: in vivo
# [41] = tested on: MOLM-13; assay: Antitumor activity against human MOLM-13 cells xenografted in NSG mouse at 400 mg/kg, po qd measured from 10 to 15 days; type: functional, organism-based; settings: time 10-15 day
# [42] = Toxicity in NSG mouse implanted with human MOLM-13 assessed as tolerability at 200 mg/kg, po qd; type: organism-based; settings: in vivo
compound,measurement,setting,value
O=C(NCc1ccc(CN2CCOCC2)cc1)c1ccc2nncn2c1,inhibition,[1],Active
O=C(NCc1cccc(CN2CCC2)c1)c1ccc2nncn2c1,Stability,[2],> 60%
same,Activity,[3],Active
same,Activity,[4],Active
same,Activity,[5],inactive
same,Stability,[6],94.94%
same,Activity,[7],inactive
O=C(NC1CCC1)c1ccc2nc(-c3cccc(NS(=O)(=O)NCCN4CCCCC4)c3)cn2c1,half-life,[8],9.3 min
O=C(CCC1=[N+]2C(=Cc3ccc(-c4ccc[nH]4)n3[B-]2(F)F)C=C1)NCCCCSc1ccc(CNC(=O)c2ccc3nncn3c2)cc1,Activity,[9],Active
C[C@H]1CCCN1Cc1cc2cnc(NC(=O)c3ccc4nncn4c3)cc2[nH]1,Stability,[2],> 60%
same,Activity,[10],inactive
same,CC50 at 192 h,[11],> 64 µM
CSc1ccc(CNC(=O)c2ccc3nncn3c2)cc1,Activity,[3],Active
same,Activity,[4],Active
same,Activity,[5],inactive
same,Activity,[7],inactive
O=C(Nc1cc2[nH]c(CN3CCC3C3CC3)cc2cn1)c1ccc2nncn2c1 (stereo unspecified),Stability,[2],> 60%
same,Activity,[10],inactive
same,CC50 at 192 h,[11],> 64 µM
O=C(NCc1ccc(CNc2ncc(F)cn2)cc1)c1ccc2nncn2c1,Activity,[3],Active
same,Activity,[4],Active
same,Activity,[5],inactive
same,Activity,[7],inactive
CC1CCN1Cc1ccc(CNC(=O)c2ccc3nncn3c2)cc1 (stereo unspecified),Activity,[3],Active
same,Activity,[4],Active
same,Activity,[5],inactive
same,Activity,[7],inactive
O=C(NCc1ccc(CN2CCC2)cc1)c1ccc2nncn2c1,inhibition,[1],Active
O=C(NCc1ccc(CN2CCCCC2)cc1)c1ccc2nncn2c1,inhibition,[1],Active
CC(C)C1CCN1Cc1ccc(CNC(=O)c2ccc3nncn3c2)cc1 (stereo unspecified),Activity,[12],Active
same,Stability,[2],> 60%
same,Activity,[13],Active
same,Activity,[3],Active
same,Activity,[14],Active
same,Activity,[4],Active
same,Activity,[15],Active
same,Activity,[16],Non-toxic
same,half-life,[17],1.85 h
same,Activity,[18],Active
same,CC50,[19],> 64 µM
same,Activity,[20],Active
same,Activity,[21],Non-toxic
same,Activity,[22],Non-toxic
same,Activity,[23],Active
same,Activity,[24],Active
same,Activity,[25],Active
same,Stability,[6],95.58%
same,Activity,[26],inactive
same,Activity,[27],Active
same,Activity,[10],inactive
same,Activity,[28],Non-toxic
same,Activity,[29],Active
same,Activity,[30],Active
same,Activity,[31],Active
same,Activity,[32],Active
same,Activity,[33],Active
same,Activity,[34],Non-toxic
same,Activity,[35],Non-toxic
same,Activity,[36],Active
same,Activity,[37],Active
CC(C)C1CCN1Cc1cc2cnc(NC(=O)c3ccc4nncn4c3)cc2[nH]1 (stereo unspecified),CC50,[5],< 4 µM
same,Activity,[10],inactive
same,CC50,[7],< 4 µM
same,CC50,[38],> 64 µM
same,CC50 at 192 h,[11],> 64 µM
O=C(CCC1=[N+]2C(=Cc3ccc(-c4ccc[nH]4)n3[B-]2(F)F)C=C1)NCCCC(=O)Nc1cccc(-c2cn3cc(C(=O)NC4CCC4)ccc3n2)c1,Activity,[39],Dose-dependent-effect
CC(C)[C@H]1CCN1Cc1cc2cnc(NC(=O)c3ccc4nncn4c3)cc2[nH]1,Activity,[12],Active
same,Activity,[13],Active
same,Activity,[14],Active
same,Activity,[15],Active
same,Activity,[18],Active
same,Activity,[40],Non-toxic
same,Activity,[20],Active
same,CC50,[5],1.25 µM
same,Activity,[21],Non-toxic
same,Activity,[23],Active
same,Activity,[25],Active
same,Stability,[6],94.54%
same,Activity,[41],Active
same,Activity,[27],Active
same,Activity,[10],inactive
same,Activity,[42],Non-toxic
same,Activity,[29],Active
same,Activity,[31],Active
same,Activity,[32],Active
same,Activity,[33],Active
same,Activity,[34],Non-toxic
same,CC50,[7],0.81 µM
same,Activity,[36],Active
same,CC50,[38],> 64 µM
same,CC50 at 192 h,[11],> 64 µM
